Reference: ChEMBL document CHEMBL1201861, “Genomics of Drug Sensitity in Cancer screening data, Wellcome Trust Sanger Institute”

What was measured:
Experiment in all cases: cells
NCI-H23 = format: functional, cell-based, Homo sapiens; details: Homo sapiens, NCI-H23;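 also: cell viability assay measuring growth inhibition of NCI-H23 cells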
Description: SANGER: Inhibition of human NCI-H23 cell growth in a cell viability assay.

ALL-PO = format: functional, cell-based, Homo sapiens; details: Homo sapiens, ALL-PO;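 also: growth inhibition of ALL-PO cells, read out by a cell viability assay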
Description: SANGER: Inhibition of human ALL-PO cell growth in a cell viability assay.

SCH = format: functional, cell-based, Homo sapiens; details: Homo sapiens, SCH;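 also: growth inhibition of human SCH cells, read out in a cell viability assay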
Description: SANGER: Inhibition of human SCH cell growth in a cell viability assay.

KS-1 = format: functional, cell-based; details: Homo sapiens;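 also: growth inhibition of KS-1 cells, read out with a cell viability assay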
Description: SANGER: Inhibition of human KS-1 cell growth in a cell viability assay.

SK-UT-1 = format: functional, cell-based, Homo sapiens; details: Homo sapiens, SK-UT-1;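 also: growth inhibition of SK-UT-1 cells, measured by a cell viability assay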
Description: SANGER: Inhibition of human SK-UT-1 cell growth in a cell viability assay.

C8166 = format: functional, cell-based, Homo sapiens; details: Homo sapiens, C8166;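 also: growth inhibition of human C8166 cells measured by a cell viability assay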
Description: SANGER: Inhibition of human C8166 cell growth in a cell viability assay.

NCI-H1581 = format: functional, cell-based, Homo sapiens; details: Homo sapiens, NCI-H1581;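 also: cell growth inhibition read out by a viability assay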
Description: SANGER: Inhibition of human NCI-H1581 cell growth in a cell viability assay.

OVCAR-4 = format: functional, cell-based, Homo sapiens; details: Homo sapiens, OVCAR-4;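 also: growth inhibition of human OVCAR-4 cells, measured with a cell viability assay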
Description: SANGER: Inhibition of human OVCAR-4 cell growth in a cell viability assay.

LXF-289 cell line = format: functional, cell-based; details: Homo sapiens
Description: SANGER: Inhibition of human LXF-289 cell growth in a cell viability assay.

Lu-65 = format: functional, cell-based, Homo sapiens; details: Homo sapiens, Lu-65;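 also: growth inhibition of Lu-65 cancer cells, read out by a cell viability assay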
Description: SANGER: Inhibition of human LU-65 cell growth in a cell viability assay.

HAL-01 = format: functional, cell-based, Homo sapiens; details: Homo sapiens, HAL-01;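 also: growth inhibition of human HAL-01 cells, read out with a cell viability assay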
Description: SANGER: Inhibition of human HAL-01 cell growth in a cell viability assay.

HD-MY-Z = format: functional, cell-based, Homo sapiens; details: Homo sapiens, HD-MY-Z;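 also: growth inhibition of HD-MY-Z cells, read out with a cell viability assay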
Description: SANGER: Inhibition of human HD-MY-Z cell growth in a cell viability assay.

RS4-11 = format: functional, cell-based, Homo sapiens; details: Homo sapiens, RS4-11;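 also: growth inhibition of RS4-11 cells, read out by a cell viability assay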
Description: SANGER: Inhibition of human RS4-11 cell growth in a cell viability assay.

no-11 = format: functional, cell-based, Homo sapiens; details: Homo sapiens;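 also: growth inhibition of human NO-11 cells, read out with a cell viability assay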
Description: SANGER: Inhibition of human no-11 cell growth in a cell viability assay.

MN-60 = format: functional, cell-based, Homo sapiens; details: Homo sapiens, MN-60;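 also: growth inhibition of the MN-60 cell line, determined with a cell viability assay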
Description: SANGER: Inhibition of human MN-60 cell growth in a cell viability assay.

NCI-H1648 = format: functional, cell-based, Homo sapiens; details: Homo sapiens, NCI-H1648;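 also: cell viability assay measuring inhibition of NCI-H1648 cell growth, from the Sanger screening data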
Description: SANGER: Inhibition of human NCI-H1648 cell growth in a cell viability assay.

KM-H2 = format: functional, cell-based, Homo sapiens; details: Homo sapiens, KM-H2;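 also: growth inhibition of KM-H2 cells, read out by a cell viability assay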
Description: SANGER: Inhibition of human KM-H2 cell growth in a cell viability assay.

IST-SL1 = format: functional, cell-based, Homo sapiens; details: Homo sapiens, IST-SL1;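 also: growth inhibition of human IST-SL1 cells, read out with a cell viability assay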
Description: SANGER: Inhibition of human IST-SL1 cell growth in a cell viability assay.

KALS-1 = format: functional, cell-based, Homo sapiens; details: Homo sapiens, KALS-1; read-out: IC50;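 also: growth inhibition of KALS-1 cells, determined with a cell viability assay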
Description: SANGER: Inhibition of human KALS-1 cell growth in a cell viability assay.

TE-8 = format: functional, cell-based, Homo sapiens; details: Homo sapiens, TE-8;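 also: growth inhibition of TE-8 cells, measured with a cell viability readout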
Description: SANGER: Inhibition of human TE-8 cell growth in a cell viability assay.

NB10 = format: functional, cell-based, Homo sapiens; details: Homo sapiens, NB10;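 also: growth inhibition of NB10 cells, read out by a cell viability assay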
Description: SANGER: Inhibition of human NB10 cell growth in a cell viability assay.

MOLT-16 = format: functional, cell-based, Homo sapiens; details: Homo sapiens, MOLT-16;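 also: growth inhibition of human MOLT-16 cells, read out with a cell viability assay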
Description: SANGER: Inhibition of human MOLT-16 cell growth in a cell viability assay.

LC-2-ad = format: functional, cell-based, Homo sapiens; details: Homo sapiens, LC-2-ad;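 also: growth inhibition of human LC-2-ad cells, read out with a cell viability assay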
Description: SANGER: Inhibition of human LC-2-ad cell growth in a cell viability assay.

DB = format: functional, cell-based, Homo sapiens; details: Homo sapiens, DB
Description: SANGER: Inhibition of human DB cell growth in a cell viability assay.

LNCaP-Clone-FGC = format: functional, cell-based, Homo sapiens; details: Homo sapiens, LNCaP-Clone-FGC
Description: SANGER: Inhibition of human LNCaP-Clone-FGC cell growth in a cell viability assay.

GOTO = format: functional, cell-based, Homo sapiens; details: Homo sapiens, GOTO;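 also: growth inhibition of GOTO cells, read out by a cell viability assay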
Description: SANGER: Inhibition of human GOTO cell growth in a cell viability assay.

GI-ME-N = format: functional, cell-based, Homo sapiens; details: Homo sapiens, GI-ME-N;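 also: growth inhibition of human GI-ME-N cells, read out with a cell viability assay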
Description: SANGER: Inhibition of human GI-ME-N cell growth in a cell viability assay.

NCI-H1092 = format: functional, cell-based, Homo sapiens; details: Homo sapiens, NCI-H1092;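 also: cell growth inhibition measured with a cell viability assay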
Description: SANGER: Inhibition of human NCI-H1092 cell growth in a cell viability assay.

NCI-H69 = format: functional, cell-based, Homo sapiens; details: Homo sapiens, NCI-H69;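 also: growth inhibition of the cell line, read out with a cell viability assay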
Description: SANGER: Inhibition of human NCI-H69 cell growth in a cell viability assay.

EW-16 = format: functional, cell-based, Homo sapiens; details: Homo sapiens, EW-16;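 also: growth inhibition of human EW-16 cells, read out as cell viability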
Description: SANGER: Inhibition of human EW-16 cell growth in a cell viability assay.

COLO-829 = format: functional, cell-based, Homo sapiens; details: Homo sapiens, COLO-829
Description: SANGER: Inhibition of human COLO-829 cell growth in a cell viability assay.

SBC-1 = format: functional, cell-based, Homo sapiens; details: Homo sapiens, SBC-1;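 also: cell viability assay measuring growth inhibition of the SBC-1 cell line, IC50 being the concentration that halves growth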
Description: SANGER: Inhibition of human SBC-1 cell growth in a cell viability assay.

GT3TKB = format: functional, cell-based, Homo sapiens; details: Homo sapiens, GT3TKB;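 also: growth inhibition of the cell line, read out with a cell viability assay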
Description: SANGER: Inhibition of human GT3TKB cell growth in a cell viability assay.

NB5 = format: functional, cell-based, Homo sapiens; details: Homo sapiens, NB5;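 also: growth inhibition of NB5 cells, read out as cell viability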
Description: SANGER: Inhibition of human NB5 cell growth in a cell viability assay.

RPMI-8226 = format: functional, cell-based, Homo sapiens; details: Homo sapiens, RPMI-8226
Description: SANGER: Inhibition of human RPMI-8226 cell growth in a cell viability assay.

KURAMOCHI = format: functional, cell-based, Homo sapiens; details: Homo sapiens, KURAMOCHI;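 also: growth inhibition of KURAMOCHI cells, read out with a cell viability assay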
Description: SANGER: Inhibition of human KURAMOCHI cell growth in a cell viability assay.

ATN-1 = format: functional, cell-based, Homo sapiens; details: Homo sapiens, ATN-1;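 also: growth inhibition of human ATN-1 cells, read out with a cell viability assay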
Description: SANGER: Inhibition of human ATN-1 cell growth in a cell viability assay.

HEL = format: functional, cell-based, Homo sapiens; details: Homo sapiens, HEL;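 also: growth inhibition of HEL cells, read out with a cell viability assay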
Description: SANGER: Inhibition of human HEL cell growth in a cell viability assay.

CTB-1 = format: functional, cell-based, Homo sapiens; details: Homo sapiens, CTB-1
Description: SANGER: Inhibition of human CTB-1 cell growth in a cell viability assay.

NCI-H1838 = format: functional, cell-based, Homo sapiens; details: Homo sapiens, NCI-H1838;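 also: growth inhibition of NCI-H1838 cells, determined with a cell viability readout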
Description: SANGER: Inhibition of human NCI-H1838 cell growth in a cell viability assay.

RCC10RGB = format: functional, cell-based, Homo sapiens; details: Homo sapiens, RCC10RGB;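 also: growth inhibition of human RCC10RGB cells, read out by a cell viability assay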
Description: SANGER: Inhibition of human RCC10RGB cell growth in a cell viability assay.

ONS-76 = format: functional, cell-based, Homo sapiens; details: Homo sapiens, ONS-76;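 also: growth inhibition of human ONS-76 cells, read out with a cell viability assay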
Description: SANGER: Inhibition of human ONS-76 cell growth in a cell viability assay.

NKM-1 = format: functional, cell-based, Homo sapiens; details: Homo sapiens, NKM-1;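 also: growth inhibition of NKM-1 cells, read out with a cell viability assay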
Description: SANGER: Inhibition of human NKM-1 cell growth in a cell viability assay.

NMC-G1 = format: functional, cell-based, Homo sapiens; details: Homo sapiens, NMC-G1;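 also: growth inhibition of the NMC-G1 cell line, measured with a cell viability read-out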
Description: SANGER: Inhibition of human NMC-G1 cell growth in a cell viability assay.

NCI-H1395 = format: functional, cell-based, Homo sapiens; details: Homo sapiens, NCI-H1395;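 also: cell viability assay read-out quantifying reduced proliferation of human NCI-H1395 cells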
Description: SANGER: Inhibition of human NCI-H1395 cell growth in a cell viability assay.

COLO-800 = format: functional, cell-based, Homo sapiens; details: Homo sapiens, COLO-800;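 also: growth inhibition of COLO-800 cells, read out with a cell viability assay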
Description: SANGER: Inhibition of human COLO-800 cell growth in a cell viability assay.

LAN-6 = format: functional, cell-based, Homo sapiens; details: Homo sapiens, LAN-6;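 also: growth inhibition of LAN-6 cells, determined with a cell viability assay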
Description: SANGER: Inhibition of human LAN-6 cell growth in a cell viability assay.

SK-MEL-1 = format: functional, cell-based, Homo sapiens; details: Homo sapiens, SK-MEL-1;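 also: growth inhibition of human SK-MEL-1 cells, read out by a cell viability assay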
Description: SANGER: Inhibition of human SK-MEL-1 cell growth in a cell viability assay.

TGW = format: functional, cell-based, Homo sapiens; details: Homo sapiens, TGW;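 also: growth inhibition of human TGW cells, read out with a cell viability assay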
Description: SANGER: Inhibition of human TGW cell growth in a cell viability assay.

Compound: CC1(C)CCC(c2ccc(Cl)cc2)=C(CN2CCN(c3ccc(C(=O)NS(=O)(=O)c4ccc(N[C@H](CCN5CCOCC5)CSc5ccccc5)c(S(=O)(=O)C(F)(F)F)c4)cc3)CC2)C1 [NAVITOCLAX]
- IC50 (NCI-H23): > 2000 nM
- IC50 (ALL-PO): 220 nM
- IC50 (SCH): > 2000 nM
- IC50 (KS-1): > 2000 nM
- IC50 (SK-UT-1): > 2000 nM
- IC50 (C8166): > 2000 nM
- IC50 (NCI-H1581): > 2000 nM
- IC50 (OVCAR-4): > 2000 nM
- IC50 (LXF-289 cell line): > 2000 nM
- IC50 (Lu-65): > 2000 nM
- IC50 (HAL-01): 725 nM
- IC50 (HD-MY-Z): > 2000 nM
- IC50 (RS4-11): 25.9 nM
- IC50 (no-11): > 2000 nM
- IC50 (MN-60): > 2000 nM
- IC50 (NCI-H1648): 1710 nM
- IC50 (KM-H2): > 2000 nM
- IC50 (IST-SL1): 353 nM
- IC50 (KALS-1): > 2000 nM
- IC50 (TE-8): > 2000 nM
- IC50 (NB10): > 2000 nM
- IC50 (MOLT-16): 653 nM
- IC50 (LC-2-ad): > 2000 nM
- IC50 (DB): 571 nM
- IC50 (LNCaP-Clone-FGC): > 2000 nM
- IC50 (GOTO): > 2000 nM
- IC50 (GI-ME-N): > 2000 nM
- IC50 (NCI-H1092): 103 nM
- IC50 (NCI-H69): > 2000 nM
- IC50 (EW-16): 813 nM
- IC50 (COLO-829): > 2000 nM
- IC50 (SBC-1): 1190 nM
- IC50 (GT3TKB): > 2000 nM
- IC50 (NB5): > 2000 nM
- IC50 (RPMI-8226): 457 nM
- IC50 (KURAMOCHI): > 2000 nM
- IC50 (ATN-1): 47.3 nM
- IC50 (HEL): 1310 nM
- IC50 (CTB-1): > 2000 nM
- IC50 (NCI-H1838): > 2000 nM
- IC50 (RCC10RGB): > 2000 nM
- IC50 (ONS-76): > 2000 nM
- IC50 (NKM-1): 17 nM
- IC50 (NMC-G1): 811 nM
- IC50 (NCI-H1395): > 2000 nM
- IC50 (COLO-800): > 2000 nM
- IC50 (LAN-6): > 2000 nM
- IC50 (SK-MEL-1): > 2000 nM
- IC50 (TGW): 46.3 nM

Compound: Cc1cc(N2CCOCC2)cc2[nH]c(-c3c(NC[C@@H](O)c4cccc(Cl)c4)cc[nH]c3=O)nc12
- IC50 (NCI-H23): > 5120 nM
- IC50 (ALL-PO): 373 nM
- IC50 (SCH): > 5120 nM
- IC50 (KS-1): 102 nM
- IC50 (SK-UT-1): > 5120 nM
- IC50 (C8166): > 5120 nM
- IC50 (NCI-H1581): > 5120 nM
- IC50 (OVCAR-4): 4870 nM
- IC50 (LXF-289 cell line): 1550 nM
- IC50 (Lu-65): 4500 nM
- IC50 (HAL-01): 1120 nM
- IC50 (HD-MY-Z): > 5120 nM
- IC50 (RS4-11): 1800 nM
- IC50 (no-11): > 5120 nM
- IC50 (MN-60): > 5120 nM
- IC50 (NCI-H1648): 190 nM
- IC50 (KM-H2): > 5120 nM
- IC50 (IST-SL1): > 5120 nM
- IC50 (KALS-1): > 5120 nM
- IC50 (TE-8): 506 nM
- IC50 (NB10): > 5120 nM
- IC50 (MOLT-16): 5020 nM
- IC50 (LC-2-ad): 117 nM
- IC50 (DB): > 5120 nM
- IC50 (LNCaP-Clone-FGC): > 5120 nM
- IC50 (GOTO): > 5120 nM
- IC50 (GI-ME-N): 2060 nM
- IC50 (NCI-H1092): > 5120 nM
- IC50 (NCI-H69): > 5120 nM
- IC50 (EW-16): 206 nM
- IC50 (COLO-829): > 5120 nM
- IC50 (SBC-1): > 5120 nM
- IC50 (GT3TKB): > 5120 nM
- IC50 (NB5): 1110 nM
- IC50 (RPMI-8226): > 5120 nM
- IC50 (KURAMOCHI): 4000 nM
- IC50 (ATN-1): 250 nM
- IC50 (HEL): 1900 nM
- IC50 (CTB-1): > 5120 nM
- IC50 (NCI-H1838): > 5120 nM
- IC50 (RCC10RGB): 3570 nM
- IC50 (ONS-76): > 5120 nM
- IC50 (NKM-1): > 5120 nM
- IC50 (NMC-G1): 4610 nM
- IC50 (NCI-H1395): > 5120 nM
- IC50 (COLO-800): > 5120 nM
- IC50 (LAN-6): 172 nM
- IC50 (SK-MEL-1): > 5120 nM
- IC50 (TGW): 683 nM
